Tested on: COLO320DM cells with lacO/lacR-GFP labelled DMs
Test: Microtubule inhibitor treatment of cells with lacO/lacR-GFP labelled DMs, immunofluorescence microscopy
Assay type: cell-based, human
Conditions: for appearance of microtubules (immunofluorescence): taxol 10 μM or vinblastine 10 μg/ml for 3 hours prior to harvesting, anti α-tubulin staining; for chromosome organization / association of DMs with chromosomes / peripheral localization of DMs on mitotic chromosomes: taxol 10 μM or vinblastine 10 μg/ml for 3 hours; for chromosome organization: DAPI counterstain; for association of DMs with chromosomes / peripheral localization of DMs on mitotic chromosomes: DMs visualized by lacR-GFP
Text: Visualizing DM-integrated and free EBV vectors by in vivo lacR-GFP staining: One of the established cell lines, containing DMs tagged with lacO repeat, was infected with lacR-GFP retrovirus. The infected cells were subcloned by limited dilution to obtain sublines in which DMs are more uniformly labelled with lacR-GFP. For time lapse imaging, the same cell line was infected with H2B-CFP and lacR-YFP viruses simultaneously, and the double-labelled cells were subcloned by limited dilution.
Immunofluorescence staining: Cells were harvested by gentle pipetting, attached to slide glasses by cytospin (500 rpm, 1 minute, Shandon, Pittsburgh, Pa.), and fixed with 3.7% formaldehyde for 10 minutes. When indicated, cells were treated with either taxol (10 μM paclitaxel, Sigma Chemical Co., St. Louis, Mo.) or vinblastine (10 μg/ml, Sigma) for 3 hours prior to harvesting them in order to disrupt microtubules. Slides were washed with PBS three times, and treated with blocking buffer (2.5% BSA, 0.2M glycine, 0.1% TritonX-100) for 30 minutes.
Primary and secondary antibodies were diluted in the blocking buffer. Primary antibodies were rabbit anti EBNA-1 serum K67-3 (1:1000, kindly provided by Dr. Jaap Middeldorp, Free University Hospital, Amsterdam, the Netherlands), human CREST autoantiserum hACA-M (for detecting centromeres, 1:2000 dilution) (Sullivan et al., 1994), and monoclonal anti α-tubulin (for detecting microtubules, 1:2000 dilution, Sigma). Following incubation for 60 minutes at room temperature, glass slides were washed three times with PBS. Secondary antibodies were Texas-Red conjugated anti-rabbit IgG (1:500, Jackson ImmunoResearch, West Grove, Pa.), Cy5 conjugated goat anti-human IgG (1:1000, Amersham, Piscataway, N.J.), and rhodamine conjugated anti mouse IgG (1:1000, Boehringer Mannheim), respectively. Following incubation for 60 minutes at room temperature, slides were washed three times with PBS, and chromosomes were counterstained with DAPI (1 μg/ml). Fluorescence of lacR-GFP was preserved well by this protocol.
Microscopy: All images appearing in the Figures were collected using a DeltaVision microscope system (Applied Precision Inc. Issaquah, Wash.) with either a 63×/NA 1.4 or a 100×/NA 1.35 oil immersion objective. For fixed specimens (except for the images of FIG. 2), three-dimensional data sets were collected to visualize EBV vectors and DMs as they distributed in multiple focal planes. Optical sections were collected at 0.2-μm focal intervals; pixel size was 0.111 μm for 63× objective and 0.0669 μm for 100× objective. Out-of-focus contamination was removed from each optical section via deconvolution processing and two-dimensional images were created by projecting the three-dimensional data stacks using the software supplied with the DeltaVision system.
The ability to readily visualize DMs without using FISH protocol has enabled the investigation of the mechanisms that contribute to their behavior during mitosis. The possibility that DMs are held away from the spindle poles by the microtubule-mediated antipolar force, to which normal chromosome arms are also known to be subjected (Fuller, 1995; Rieder et al., 1986) was examined. DM-labelled cells were treated with either a microtubule stabilizer (taxol) or destabilizer (vinblastine). DMs and microtubules were visualized by lacR-GFP and immunofluorescence staining, respectively.

Compound | appearance of microtubules (immunofluorescence) | chromosome organization | association of DMs with chromosomes | peripheral localization of DMs on mitotic chromosomes
CC(=O)O[C@H]1C(=O)[C@@]2(C)[C@H]([C@H](OC(=O)c3ccccc3)[C@]3(O)C[C@H](OC(=O)[C@H](O)[C@@H](NC(=O)c4ccccc4)c4ccccc4)C(C)=C1C3(C)C)[C@]1(OC(C)=O)CO[C@@H]1C[C@@H]2O [taxol, paclitaxel] | multiple aster-like structures | completely disrupted | still associated closely with chromosomes | no longer attached to the periphery of clustered chromosomes
CC[C@]1(O)C[C@@H]2CN(CCc3c([nH]c4ccccc34)[C@@](C(=O)OC)(c3cc4c(cc3OC)N(C)[C@H]3[C@@](O)(C(=O)OC)[C@H](OC(C)=O)[C@]5(CC)C=CCN6CC[C@]43[C@@H]65)C2)C1 [vinblastine] | rod-like microtubules | completely disrupted | still associated closely with chromosomes | no longer attached to the periphery of clustered chromosomes

Source: patent US20060051739A1, “Methods and composition for visualizing and interfering with chromosomal tethering of extrachromosomal molecules” (Salk Institute for Biological Studies, priority 2000, published 2006)
